# Source: ChEMBL document CHEMBL5030535, “Conjugates Derived from Lapatinib Derivatives with Cancer Cell Stemness Inhibitors Effectively Reversed Drug Resistance in Triple-Negative Breast Cancer” (J Med Chem, 2021)
# Calls of active or inactive are those of the source. No cut-off for these calls is given here.
# Columns and labels:
# MDA-MB-231 [1] = assay: Antiproliferative activity against human MDA-MB-231 cells assessed as inhibition of cell growth measured after 72 hrs by MTT assay; format: functional, cell-based; conditions: MDA-MB-231, 72 h
# [2] = Resistant factor, ratio of IC50 for antiproliferative activity against drug-tolerant human MDA-MB-231 cells to IC50 for human MDA-MB-231 cells; format: functional
# MCF7 = assay: Antiproliferative activity against human MCF7 cells assessed as inhibition of cell growth measured after 72 hrs by MTT assay; format: functional, cell-based; conditions: MCF7, 72 h
# MDA-MB-231 [3] = assay: Antiproliferative activity against human drug tolerant MDA-MB-231/lapatinib cells assessed as inhibition of cell growth in measured after 72 hrs by MTT assay; format: functional, cell-based; conditions: MDA-MB-231, 72 h
# HUVEC = assay: Antiproliferative activity against human HUVEC cells assessed as inhibition of cell growth in measured after 72 hrs by MTT assay; format: cell-based
# MDA-MB-231 [4] = assay: Inhibition of Wnt/beta-Catenin signaling in drug-tolerant human MDA-MB-231/lapatinib cells assessed as reduction in p-GSK3beta level at 20 uM incubated for 24 hrs by Western blot analysis
# MDA-MB-231 [5] = assay: Inhibition of cell stemness in human drug-tolerant MDA-MB-231/lapatinib cells assessed as inhibition of CD44+/CD24- expression at 20 uM after 24 hrs by flow cytometry analysis; format: functional
# MDA-MB-231 [6] = assay: Inhibition of Wnt/beta-Catenin signaling in drug-tolerant human MDA-MB-231/lapatinib cells assessed as reduction in cyclin D1 mRNA level at 20 uM incubated for 24 hrs by qRT-PCR analysis
# MDA-MB-231 [7] = assay: Inhibition of cell stemness in drug-tolerant human MDA-MB-231/lapatinib cells assessed as inhibition of Jagged expression at 20 uM after 24 hrs by flow cytometry; format: functional, cell-based
# MDA-MB-231 [8] = assay: Cell cycle arrest in human MDA-MB-231 cells assessed as increase in accumulation at S phase at 20 uM incubated for 24 hrs by PI staining based flow cytometry; format: functional
# MDA-MB-231 [9] = assay: Cell cycle arrest in human drug-tolerant MDA-MB-231/lapatinib cells assessed as accumulation at G2-M phase at 20 uM incubated for 24 hrs by PI staining based flow cytometry; format: functional
# [10] = biological target: T1, Epidermal growth factor receptor (Homo sapiens, UniProt P00533); assay: Inhibition of human EGFR in human drug-tolerant MDA-MB-231/lapatinib cells assessed as inhibition of phosphorylation ERK1/2 at T202/Y204 of measured after 24 hrs by Western blot analysis; conditions: dose 5-20 µM
# [11] = biological target: T1, Epidermal growth factor receptor; assay: Inhibition of exogenous EGFR (unknown origin)
# [12] = biological target: T1, Epidermal growth factor receptor; assay: Inhibition of human EGFR in human MDA-MB-231 cells assessed as inhibition of phosphorylation Akt1/2/3 at Ser473 of measured after 24 hrs by Western blot analysis; format: cell-based; conditions: dose 5-20 µM
# MDA-MB-231 [13] = assay: Inhibition of Wnt/beta-Catenin signaling in drug-tolerant human MDA-MB-231/lapatinib cells assessed as reduction in S100A4 mRNA level at 20 uM incubated for 24 hrs by qRT-PCR analysis
# MDA-MB-231 [14] = assay: Inhibition of cell invasion in human MDA-MB-231/lapatinib cells at 20 uM; format: functional
# MDA-MB-231 [15] = assay: Induction of apoptosis in drug-tolerant human MDA-MB-231 cells/lapatinib cells assessed as apoptotic rate at 20 uM measured after 24 hrs by flow cytometry; format: functional
# MDA-MB-231 [16] = assay: Antiproliferative activity against drug-tolerant human MDA-MB-231/lapatinib cells assessed as CD44-positive cells measured after 24 hrs by MTT assay; format: functional, cell-based; conditions: MDA-MB-231, 24 h
# MDA-MB-231 [17] = assay: Inhibition of cell migration in human drug-tolerant MDA-MB-231/lapatinib cells at 20 uM; format: functional
# MDA-MB-231 [18] = assay: Inhibition of cell stemness in human drug-tolerant MDA-MB-231/lapatinib cells assessed as inhibition of OCT4 expression at 20 uM after 24 hrs by qRT-PCR analysis; format: functional, cell-based
# MDA-MB-231 [19] = assay: Inhibition of cell stemness in human drug-tolerant MDA-MB-231/lapatinib cells assessed as inhibition of SOX-2 expression at 20 uM after 24 hrs by qRT-PCR analysis; format: functional, cell-based
# [20] = biological target: T2, Aldehyde dehydrogenase 1A1 (Homo sapiens, UniProt P00352); assay: Inhibition of ALDH1A1 in human drug-tolerant MDA-MB-231/lapatinib cells assessed as after 24 hrs
# T2 sequence (P00352 whole entry): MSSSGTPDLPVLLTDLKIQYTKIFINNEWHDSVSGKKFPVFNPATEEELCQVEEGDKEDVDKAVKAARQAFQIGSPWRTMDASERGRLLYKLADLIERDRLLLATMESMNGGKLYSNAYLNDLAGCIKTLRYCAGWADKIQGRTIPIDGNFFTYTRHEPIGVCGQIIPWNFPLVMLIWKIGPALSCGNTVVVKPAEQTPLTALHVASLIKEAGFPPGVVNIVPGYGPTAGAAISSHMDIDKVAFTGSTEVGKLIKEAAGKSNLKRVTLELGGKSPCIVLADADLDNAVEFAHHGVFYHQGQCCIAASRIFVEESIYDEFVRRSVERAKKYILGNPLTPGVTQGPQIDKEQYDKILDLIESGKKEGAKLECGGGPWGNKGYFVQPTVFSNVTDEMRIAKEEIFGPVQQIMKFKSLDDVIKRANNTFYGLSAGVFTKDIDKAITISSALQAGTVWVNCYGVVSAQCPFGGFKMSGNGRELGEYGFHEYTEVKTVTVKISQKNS
# [21] = biological target: T1, Epidermal growth factor receptor; assay: Inhibition of human EGFR in human drug-tolerant MDA-MB-231/lapatinib cells assessed as inhibition of phosphorylation Akt1/2/3 at Ser473 of measured after 24 hrs by Western blot analysis; conditions: dose 5-20 µM
# [22] = biological target: T1, Epidermal growth factor receptor; assay: Inhibition of human EGFR phosphorylation in human MDA-MB-231 cells measured after 24 hrs by Western blot analysis; format: cell-based; conditions: dose 5-20 µM
# MDA-MB-231 [23] = assay: Potency index, ratio of lapatinib IC50 to test compound IC50 for induction of apoptosis in drug-tolerant human MDA-MB-231 cells/lapatinib cells assessed as apoptotic rate at 20 uM measured after 24 hrs by flow cytometry; format: functional
# [24] = biological target: T1, Epidermal growth factor receptor; assay: Inhibition of human EGFR phosphorylation in human drug-tolerant MDA-MB-231/lapatinib cells measured after 24 hrs by Western blot analysis; conditions: dose 5-20 µM
# MDA-MB-231 [25] = assay: Inhibition of Wnt/beta-Catenin signaling in drug-tolerant human MDA-MB-231/lapatinib cells assessed as reduction in beta-catenin level at 20 uM incubated for 24 hrs by Western blot analysis
# MDA-MB-231 [26] = assay: Antiproliferative activity against drug-tolerant human MDA-MB-231/lapatinib cells assessed as CD44+/CD24- cells measured at 20 uM after 24 hrs by MTT assay; format: functional
# [27] = biological target: T1, Epidermal growth factor receptor; assay: Inhibition of human EGFR in human MDA-MB-231 cells assessed as inhibition of phosphorylation ERK1/2 at T202/Y204 of measured after 24 hrs by Western blot analysis; format: cell-based; conditions: dose 5-20 µM
# MDA-MB-231 [28] = assay: Induction apoptosis in MDA-MB-231/ lapatinib cells assessed as apoptotic cells at 20 uM measured after 24 hrs by propidium iodide staining based flow cytometric analysis; format: functional, cell-based; conditions: Homo sapiens
# [29] = Octanol/water partition coefficient, log P of the compound by shake flask method based thermodynamic solubility assay; format: physicochemical
# MDA-MB-231 [30] = assay: Inhibition of Wnt/beta-Catenin signaling in drug-tolerant human MDA-MB-231/lapatinib cells assessed as reduction in c-Myc mRNA level at 20 uM incubated for 24 hrs by qRT-PCR analysis
# MDA-MB-231 [31] = assay: Inhibition of colony formation in human drug-tolerant MDA-MB-231/lapatinib cells at 5 uM measured after 24 hrs; format: functional
# MDA-MB-231 [32] = assay: Cell cycle arrest in human MDA-MB-231 cells assessed as accumulation at G2-M phase at 20 uM incubated for 24 hrs by PI staining based flow cytometry; format: functional
# MDA-MB-231 [33] = assay: Inhibition of cell stemness in human drug-tolerant MDA-MB-231/lapatinib cells assessed as inhibition of Kif4 expression at 20 uM after 24 hrs by qRT-PCR analysis; format: functional, cell-based
# MDA-MB-231 [34] = assay: Antitumor activity against drug-tolerant human MDA-MB-231/lapatinib cells injected in BALB/c mouse assessed as tumor development measured after 8 weeks; format: functional, cell-based
# MDA-MB-231 [35] = assay: Inhibition of Wnt/beta-Catenin signaling in drug-tolerant human MDA-MB-231/lapatinib cells assessed as reduction in MMP7 mRNA level at 20 uM incubated for 24 hrs by qRT-PCR analysis; format: tissue-based
# MDA-MB-231 [36] = assay: Inhibition of cell stemness in drug-tolerant human MDA-MB-231/lapatinib cells assessed as inhibition of Notch expression at 20 uM after 24 hrs by flow cytometry; format: functional, cell-based
# MDA-MB-231 [37] = assay: Inhibition of Wnt/beta-Catenin signaling in drug-tolerant human MDA-MB-231/lapatinib cells assessed as increase in nuclear expression of p-beta-catenin level at 20 uM incubated for 24 hrs by Western blot analysis
# MDA-MB-231 [38] = assay: Cell cycle arrest in human drug-tolerant MDA-MB-231/lapatinib cells assessed as increase in accumulation at S phase at 20 uM incubated for 24 hrs […]; format: functional, cell-based
# T1 sequence (P00533 whole entry): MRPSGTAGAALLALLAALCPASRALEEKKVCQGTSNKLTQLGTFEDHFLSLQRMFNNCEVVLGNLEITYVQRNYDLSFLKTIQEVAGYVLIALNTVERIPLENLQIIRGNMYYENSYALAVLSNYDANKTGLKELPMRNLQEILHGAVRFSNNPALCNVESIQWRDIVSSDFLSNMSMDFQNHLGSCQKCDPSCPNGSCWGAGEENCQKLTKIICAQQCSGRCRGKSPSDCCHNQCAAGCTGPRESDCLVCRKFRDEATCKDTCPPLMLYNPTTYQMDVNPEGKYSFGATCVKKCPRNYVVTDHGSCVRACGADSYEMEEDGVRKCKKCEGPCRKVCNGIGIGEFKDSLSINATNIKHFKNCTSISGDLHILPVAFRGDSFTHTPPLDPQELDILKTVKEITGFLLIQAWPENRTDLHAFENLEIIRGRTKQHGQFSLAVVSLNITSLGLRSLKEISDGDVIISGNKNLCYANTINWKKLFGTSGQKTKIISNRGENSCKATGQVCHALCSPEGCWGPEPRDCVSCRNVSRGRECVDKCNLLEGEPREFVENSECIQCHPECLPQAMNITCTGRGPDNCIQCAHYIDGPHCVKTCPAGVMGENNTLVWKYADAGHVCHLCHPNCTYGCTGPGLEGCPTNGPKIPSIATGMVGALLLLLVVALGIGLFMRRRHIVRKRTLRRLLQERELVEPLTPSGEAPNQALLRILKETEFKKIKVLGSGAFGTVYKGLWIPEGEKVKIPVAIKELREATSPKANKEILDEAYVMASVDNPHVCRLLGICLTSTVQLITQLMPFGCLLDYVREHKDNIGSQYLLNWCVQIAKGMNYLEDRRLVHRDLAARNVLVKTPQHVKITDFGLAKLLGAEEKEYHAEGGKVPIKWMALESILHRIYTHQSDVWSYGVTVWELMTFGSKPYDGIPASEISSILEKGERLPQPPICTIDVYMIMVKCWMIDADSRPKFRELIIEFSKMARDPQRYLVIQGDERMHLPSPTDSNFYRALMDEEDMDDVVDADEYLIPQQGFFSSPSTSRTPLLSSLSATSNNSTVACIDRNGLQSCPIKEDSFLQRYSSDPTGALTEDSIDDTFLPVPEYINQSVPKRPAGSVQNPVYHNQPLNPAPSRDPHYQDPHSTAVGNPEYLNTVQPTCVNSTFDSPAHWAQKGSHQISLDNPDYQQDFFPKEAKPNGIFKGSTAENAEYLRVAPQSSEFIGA
smiles,measurement,setting,value
CC(OC(=O)CCC(=O)N(CCS(C)(=O)=O)Cc1ccc(-c2ccc3ncnc(Nc4ccc(OCc5cccc(F)c5)c(Cl)c4)c3c2)o1)c1cc2c(o1)C(=O)c1ccccc1C2=O (stereo unspecified),IC50,MDA-MB-231 [1],3.61 µM
same,Ratio IC50,[2],1.62
same,IC50,MCF7,3.97 µM
same,IC50,MDA-MB-231 [3],5.82 µM
same,IC50,HUVEC,56.6 µM
CS(=O)(=O)CCN(Cc1ccc(-c2ccc3ncnc(Nc4ccc(OCc5cccc(F)c5)c(Cl)c4)c3c2)o1)C(=O)CCC(=O)OCCN1CCN(CCCN2c3ccccc3Sc3ccc(Cl)cc32)CC1,inhibition,MDA-MB-231 [4],Active
same,IC50,MDA-MB-231 [1],1.54 µM
same,inhibition at 20 µM,MDA-MB-231 [5],0.56%
same,inhibition,MDA-MB-231 [6],Active
same,inhibition,MDA-MB-231 [7],Active
same,Activity,MDA-MB-231 [8],Active
same,Activity,MDA-MB-231 [9],Active
same,inhibition,[10],Dose-Dependent Effect
same,IC50,[11],0.0105 µM
same,inhibition,[12],Active
same,inhibition,MDA-MB-231 [13],Active
same,inhibition at 20 µM,MDA-MB-231 [14],56.3%
same,Activity,MDA-MB-231 [15],72%
same,IC50,MDA-MB-231 [16],0.56 µM
same,inhibition at 20 µM,MDA-MB-231 [17],13.2%
same,inhibition,MDA-MB-231 [18],Active
same,inhibition,MDA-MB-231 [19],Active
same,IC50,[20],0.0864 µM
same,inhibition,[21],Dose-Dependent Effect
same,inhibition,[22],Dose-Dependent Effect
same,Ratio IC50,MDA-MB-231 [23],2.23
same,inhibition,[24],Dose-Dependent Effect
same,inhibition,MDA-MB-231 [25],Active
same,inhibition at 20 µM,MDA-MB-231 [26],72.9%
same,Ratio IC50,[2],0.67
same,inhibition,[27],Active
same,Activity,MDA-MB-231 [28],Active
same,logP,[29],2.49
same,IC50,MCF7,3.62 µM
same,inhibition,MDA-MB-231 [30],Active
same,inhibition at 5 µM,MDA-MB-231 [31],10.9%
same,IC50,MDA-MB-231 [3],1.03 µM
same,Activity,MDA-MB-231 [32],Active
same,inhibition,MDA-MB-231 [33],Active
same,Activity,MDA-MB-231 [34],Active
same,inhibition,MDA-MB-231 [35],Active
same,inhibition,MDA-MB-231 [36],Active
same,IC50,HUVEC,89.2 µM
same,inhibition,MDA-MB-231 [37],Active
same,Activity,MDA-MB-231 [38],Active
OCCN1CCN(CCCN2c3ccccc3Sc3ccc(Cl)cc32)CC1 [PERPHENAZINE],IC50,MDA-MB-231 [1],30.4 µM
same,IC50,[20],0.524 µM
same,Ratio IC50,[2],1.05
same,IC50,MCF7,35.8 µM
same,IC50,MDA-MB-231 [3],31.8 µM
same,IC50,HUVEC,97.8 µM
CS(=O)(=O)CCN(Cc1ccc(-c2ccc3ncnc(Nc4ccc(OCc5cccc(F)c5)c(Cl)c4)c3c2)o1)C(=O)CCC(=O)OCCN1CCN(CCCN2c3ccccc3Sc3ccc(C(F)(F)F)cc32)CC1,IC50,MDA-MB-231 [1],2.98 µM
same,Ratio IC50,[2],1.17
same,IC50,MCF7,6.38 µM
same,IC50,MDA-MB-231 [3],3.42 µM
same,IC50,HUVEC,39.6 µM
